# Source: the supplement of paper PMC10307832
# Assays:
# Test in all cases: relative viability (nuclei count vs DMSO), 5 days (fraction); higher = more cells survive
# NCI-H1666 = tested on: NCI-H1666
# How it was run: (§1)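 Lung cancer cell lines, seeded in 1536-well plates, were treated the following day by pin tool with a single drug or with five library-drug doses (not always all listed) in √10 steps on top of a fixed anchor-drug dose. Cells were fixed and nuclei stained in one step after 5 days, and nuclei were counted. Relative viability is the nuclei count for treated wells divided by that for vehicle wells, reported as medians of duplicate plates.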
# NCI-H2228 = tested on: NCI-H2228
# How it was run: as §1
# SW 1573 = tested on: SW 1573
# How it was run: as §1
# NCI-H520 = tested on: NCI-H520
# How it was run: as §1
# LU99A = tested on: LU99A
# How it was run: as §1
# LOU-NH91 = tested on: LOU-NH91
# How it was run: as §1
# NCI-H838 = tested on: NCI-H838
# How it was run: as §1
# LC-2-ad = tested on: LC-2-ad
# How it was run: as §1
# NCI-H460 = tested on: NCI-H460
# How it was run: as §1
# NCI-H1355 = tested on: NCI-H1355
# How it was run: as §1
# NCI-H2347 = tested on: NCI-H2347
# How it was run: as §1
# PC-3 [JPC-3] = tested on: PC-3 [JPC-3]
# How it was run: as §1
# NCI-H1650 = tested on: NCI-H1650
# How it was run: as §1
# A-427 = tested on: A-427
# How it was run: as §1
# EKVX = tested on: EKVX
# How it was run: as §1
# NCI-H1915 = tested on: NCI-H1915
# How it was run: as §1
# RERF-LC-KJ = tested on: RERF-LC-KJ
# How it was run: as §1
# NCI-H1993 = tested on: NCI-H1993
# How it was run: as §1
# NCI-H1793 = tested on: NCI-H1793
# How it was run: as §1
# NCI-H23 = tested on: NCI-H23
# How it was run: as §1
# NCI-H650 = tested on: NCI-H650
# How it was run: as §1
# BEN = tested on: BEN
# How it was run: as §1
# LCLC-97TM1 = tested on: LCLC-97TM1
# How it was run: as §1
compound,measurement,setting,value
O=c1[nH]c2ccccc2n1C1CCN(CCCC(c2ccc(F)cc2)c2ccc(F)cc2)CC1 [Pimozide] + CC(=O)c1c(C)c2cnc(Nc3ccc(N4CCNCC4)cn3)nc2n(C2CCCC2)c1=O [Palbociclib] (partner 0.5 µM),relative viability,NCI-H1666; first compound 0.08 µM,0.603
same,relative viability,NCI-H1666; first compound 0.253 µM,0.653
same,relative viability,NCI-H1666; first compound 0.8 µM,0.606
same,relative viability,NCI-H1666; first compound 2.53 µM,0.715
same,relative viability,NCI-H1666; first compound 8 µM,0.666
same,relative viability,NCI-H2228; first compound 0.08 µM,0.517
same,relative viability,NCI-H2228; first compound 0.253 µM,0.58
same,relative viability,NCI-H2228; first compound 0.8 µM,0.606
same,relative viability,NCI-H2228; first compound 2.53 µM,0.587
same,relative viability,NCI-H2228; first compound 8 µM,0.417
same,relative viability,SW 1573; first compound 0.08 µM,0.422
same,relative viability,SW 1573; first compound 0.253 µM,0.318
same,relative viability,SW 1573; first compound 0.8 µM,0.249
same,relative viability,SW 1573; first compound 2.53 µM,0.214
same,relative viability,SW 1573; first compound 8 µM,0.146
same,relative viability,NCI-H520; first compound 0.08 µM,0.265
same,relative viability,NCI-H520; first compound 0.253 µM,0.22
same,relative viability,NCI-H520; first compound 0.8 µM,0.191
same,relative viability,NCI-H520; first compound 2.53 µM,0.217
same,relative viability,NCI-H520; first compound 8 µM,0.213
same,relative viability,LU99A; first compound 0.08 µM,0.407
same,relative viability,LU99A; first compound 0.8 µM,0.388
same,relative viability,LU99A; first compound 2.53 µM,0.421
same,relative viability,LU99A; first compound 8 µM,0.41
same,relative viability,LOU-NH91; first compound 0.08 µM,0.525
same,relative viability,LOU-NH91; first compound 0.253 µM,0.404
same,relative viability,LOU-NH91; first compound 0.8 µM,0.443
same,relative viability,LOU-NH91; first compound 2.53 µM,0.558
same,relative viability,LOU-NH91; first compound 8 µM,0.539
same,relative viability,NCI-H838; first compound 0.08 µM,0.252
same,relative viability,NCI-H838; first compound 0.253 µM,0.251
same,relative viability,NCI-H838; first compound 0.8 µM,0.203
same,relative viability,NCI-H838; first compound 2.53 µM,0.244
same,relative viability,NCI-H838; first compound 8 µM,0.215
same,relative viability,LC-2-ad; first compound 0.08 µM,0.517
same,relative viability,LC-2-ad; first compound 0.253 µM,0.474
same,relative viability,LC-2-ad; first compound 0.8 µM,0.475
same,relative viability,LC-2-ad; first compound 2.53 µM,0.472
same,relative viability,LC-2-ad; first compound 8 µM,0.482
same,relative viability,NCI-H460; first compound 0.08 µM,0.137
same,relative viability,NCI-H460; first compound 0.253 µM,0.188
same,relative viability,NCI-H460; first compound 0.8 µM,0.139
same,relative viability,NCI-H460; first compound 2.53 µM,0.221
same,relative viability,NCI-H460; first compound 8 µM,0.184
same,relative viability,NCI-H1355; first compound 0.08 µM,0.338
same,relative viability,NCI-H1355; first compound 0.253 µM,0.387
same,relative viability,NCI-H1355; first compound 0.8 µM,0.329
same,relative viability,NCI-H1355; first compound 2.53 µM,0.388
same,relative viability,NCI-H1355; first compound 8 µM,0.407
same,relative viability,NCI-H2347; first compound 0.08 µM,0.432
same,relative viability,NCI-H2347; first compound 0.253 µM,0.418
same,relative viability,NCI-H2347; first compound 0.8 µM,0.463
same,relative viability,NCI-H2347; first compound 2.53 µM,0.455
same,relative viability,NCI-H2347; first compound 8 µM,0.407
same,relative viability,PC-3 [JPC-3]; first compound 0.253 µM,0.551
same,relative viability,PC-3 [JPC-3]; first compound 0.8 µM,0.481
same,relative viability,PC-3 [JPC-3]; first compound 2.53 µM,0.544
same,relative viability,PC-3 [JPC-3]; first compound 8 µM,0.509
same,relative viability,NCI-H1650; first compound 0.08 µM,0.287
same,relative viability,NCI-H1650; first compound 0.253 µM,0.378
same,relative viability,NCI-H1650; first compound 0.8 µM,0.265
same,relative viability,NCI-H1650; first compound 2.53 µM,0.352
same,relative viability,NCI-H1650; first compound 8 µM,0.271
same,relative viability,A-427; first compound 0.08 µM,0.531
same,relative viability,A-427; first compound 0.253 µM,0.57
same,relative viability,A-427; first compound 0.8 µM,0.462
same,relative viability,A-427; first compound 2.53 µM,0.457
same,relative viability,A-427; first compound 8 µM,0.497
same,relative viability,EKVX; first compound 0.253 µM,0.4
same,relative viability,EKVX; first compound 0.8 µM,0.343
same,relative viability,EKVX; first compound 2.53 µM,0.387
same,relative viability,EKVX; first compound 8 µM,0.37
same,relative viability,NCI-H1915; first compound 0.08 µM,0.435
same,relative viability,NCI-H1915; first compound 0.253 µM,0.498
same,relative viability,NCI-H1915; first compound 2.53 µM,0.501
same,relative viability,NCI-H1915; first compound 8 µM,0.477
same,relative viability,RERF-LC-KJ; first compound 0.08 µM,1
same,relative viability,RERF-LC-KJ; first compound 0.253 µM,0.972
same,relative viability,RERF-LC-KJ; first compound 0.8 µM,0.987
same,relative viability,RERF-LC-KJ; first compound 2.53 µM,0.778
same,relative viability,RERF-LC-KJ; first compound 8 µM,0.851
same,relative viability,NCI-H1993; first compound 0.08 µM,0.616
same,relative viability,NCI-H1993; first compound 0.253 µM,0.58
same,relative viability,NCI-H1993; first compound 0.8 µM,0.653
same,relative viability,NCI-H1993; first compound 2.53 µM,0.556
same,relative viability,NCI-H1993; first compound 8 µM,0.558
same,relative viability,NCI-H1793; first compound 0.08 µM,0.263
same,relative viability,NCI-H1793; first compound 0.253 µM,0.289
same,relative viability,NCI-H1793; first compound 0.8 µM,0.306
same,relative viability,NCI-H1793; first compound 2.53 µM,0.285
same,relative viability,NCI-H1793; first compound 8 µM,0.339
same,relative viability,NCI-H23; first compound 0.08 µM,0.454
same,relative viability,NCI-H23; first compound 0.253 µM,0.525
same,relative viability,NCI-H23; first compound 0.8 µM,0.435
same,relative viability,NCI-H23; first compound 2.53 µM,0.445
same,relative viability,NCI-H23; first compound 8 µM,0.553
same,relative viability,NCI-H650; first compound 0.08 µM,0.396
same,relative viability,NCI-H650; first compound 0.253 µM,0.313
same,relative viability,NCI-H650; first compound 0.8 µM,0.331
same,relative viability,NCI-H650; first compound 2.53 µM,0.313
same,relative viability,NCI-H650; first compound 8 µM,0.291
same,relative viability,BEN; first compound 0.08 µM,0.442
same,relative viability,BEN; first compound 0.253 µM,0.472
same,relative viability,BEN; first compound 0.8 µM,0.451
same,relative viability,BEN; first compound 2.53 µM,0.457
same,relative viability,BEN; first compound 8 µM,0.494
same,relative viability,LCLC-97TM1; first compound 0.08 µM,0.203
same,relative viability,LCLC-97TM1; first compound 0.253 µM,0.237
same,relative viability,LCLC-97TM1; first compound 0.8 µM,0.203
same,relative viability,LCLC-97TM1; first compound 2.53 µM,0.167
same,relative viability,LCLC-97TM1; first compound 8 µM,0.251
